Assays:
Bacterial Spores = assay: Antimicrobial activity against bacterial spores versus conventional compositions; format: cell-based; conditions: 0.5 min, pH 3.32, 35%
Experimental: (§1) Antimicrobial activity was determined according to two well established methods. The first method was the procedure set out in Germicidal and Detergent Sanitizing Action of Disinfectants, Official Methods of Analysis of the Association of Official Analytical Chemists, paragraph 960.09 and applicable sections, 15th Edition, 1990 (EPA Guideline 91-2). The second method was the procedure described in A.O.A.C. Use Dilution Methods, Official Methods of Analysis of the Association of Official Analytical Chemists, paragraph 955.14 and applicable sections, 15th Edition, 1990 (EPA Guideline 91-2). Briefly, antimicrobial activity of the present compositions was determined by exposing a one mL aliquot containing the target microorganism to 99 mL of the desired concentration of the test substance at the desired temperature. After the specified contact time, one mL of the test solution containing the microorganism was neutralized and enumerated for survivors.

S. aureus = assay: Antimicrobial activity, AOAC sanitizing/use dilution suspension test; format: cell-based; conditions: Staphylococcus aureus
Experimental: as §1

SMILES | log reduction at 35 % (Bacterial Spores; 40 °C, 30 sec) | log reduction at 35 % (Bacterial Spores; 40 °C, 60 sec) | log reduction at 35 % (Bacterial Spores; 40 °C, 120 sec) | log reduction at 35 % (Bacterial Spores; 60 °C, 10 sec) | log reduction at 35 % (Bacterial Spores; 60 °C, 20 sec) | log reduction at 35 % (Bacterial Spores; 60 °C, 30 sec) | log reduction at 35 % (Bacterial Spores; 80 °C, 10 sec) | log reduction at 35 % (Bacterial Spores; 80 °C, 20 sec) | log reduction at 35 % (Bacterial Spores; 80 °C, 30 sec) | log reduction at 5 µg/mL (S. aureus; concentration of 5 ppm and pH of ∼5, Table 25, read-out: log reductions of Staphylococcus aureus) | log reduction at 11 µg/mL (S. aureus; pH 6.1, pH of 6.1, 11 ppm of peroxyoctanoic acid (POOA), Table 13 (composition K), read-out: reducing S. aureus)
OO [Composition H2O2, hydrogen peroxide] | 1.19 | 2.94 | > 6.3 | 1.59 | 4.85 | 4.89 | > 6.3 | > 6.3 | > 6.3 | – | –
CCCCCCCC(=O)OO [Pure POOA Crystals, peroxyoctanoic acid] | – | – | – | – | – | – | – | – | – | 5 | > 7.04
